Tests used:
[1] = biological target: T1, Human Fibrinogen/Bovine Thrombin (Homo sapiens, UniProt P02671+P02675+P02679); experiment: Clotting assay (fibrinogen plus thrombin, time to gel-like clot); assay type: biochemical; conditions: for Human Fibrinogen/Bovine Thrombin Clotting Time: 1 mg/ml fibrinogen, 1 unit/ml thrombin
T1 construct: purchased Chromogenix (Sweden)
T1 sequence (P02671 20-629 limits assumed): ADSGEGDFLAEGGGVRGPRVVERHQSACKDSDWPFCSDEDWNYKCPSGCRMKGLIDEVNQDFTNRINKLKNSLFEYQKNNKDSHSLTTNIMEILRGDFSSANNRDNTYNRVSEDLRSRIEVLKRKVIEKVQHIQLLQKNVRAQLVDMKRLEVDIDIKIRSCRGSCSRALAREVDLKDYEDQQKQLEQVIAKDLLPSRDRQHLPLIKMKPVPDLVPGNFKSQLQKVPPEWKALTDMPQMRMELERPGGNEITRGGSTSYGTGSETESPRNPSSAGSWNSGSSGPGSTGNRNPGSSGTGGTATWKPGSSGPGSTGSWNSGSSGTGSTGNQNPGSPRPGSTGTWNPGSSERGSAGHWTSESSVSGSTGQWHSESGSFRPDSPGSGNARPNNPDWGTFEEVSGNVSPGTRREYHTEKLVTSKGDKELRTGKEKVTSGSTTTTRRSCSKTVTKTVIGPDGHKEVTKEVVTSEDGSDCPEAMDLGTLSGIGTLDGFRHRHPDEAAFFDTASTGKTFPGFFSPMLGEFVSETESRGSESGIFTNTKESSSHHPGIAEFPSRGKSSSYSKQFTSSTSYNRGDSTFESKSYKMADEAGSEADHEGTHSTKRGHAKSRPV
T1 sequence (P02675 31-491): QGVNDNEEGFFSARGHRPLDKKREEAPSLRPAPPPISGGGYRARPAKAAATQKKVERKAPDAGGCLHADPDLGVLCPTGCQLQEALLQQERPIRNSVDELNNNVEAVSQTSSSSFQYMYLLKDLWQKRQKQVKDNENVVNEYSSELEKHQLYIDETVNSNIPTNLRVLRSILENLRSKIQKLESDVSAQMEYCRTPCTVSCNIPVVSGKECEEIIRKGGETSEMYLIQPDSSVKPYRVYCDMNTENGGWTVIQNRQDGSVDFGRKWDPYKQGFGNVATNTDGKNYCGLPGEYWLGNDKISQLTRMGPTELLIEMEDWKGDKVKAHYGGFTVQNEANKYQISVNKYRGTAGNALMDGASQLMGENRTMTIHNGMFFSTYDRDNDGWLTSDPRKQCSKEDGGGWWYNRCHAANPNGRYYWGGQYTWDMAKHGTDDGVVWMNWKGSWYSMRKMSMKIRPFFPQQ
T1 sequence (P02679 27-433 limits assumed): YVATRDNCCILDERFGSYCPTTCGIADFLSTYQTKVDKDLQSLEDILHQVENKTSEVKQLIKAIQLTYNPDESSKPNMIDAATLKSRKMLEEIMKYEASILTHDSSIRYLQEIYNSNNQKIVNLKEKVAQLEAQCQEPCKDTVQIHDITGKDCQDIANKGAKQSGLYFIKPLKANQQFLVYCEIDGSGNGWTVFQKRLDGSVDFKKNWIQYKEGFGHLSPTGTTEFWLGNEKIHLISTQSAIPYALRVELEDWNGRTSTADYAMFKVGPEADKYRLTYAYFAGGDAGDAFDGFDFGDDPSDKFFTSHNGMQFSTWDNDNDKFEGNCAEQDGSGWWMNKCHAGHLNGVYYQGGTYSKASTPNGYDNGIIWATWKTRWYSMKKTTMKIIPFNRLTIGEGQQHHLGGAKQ
Protocol: These tests were conducted by incubating 1 mg of human fibrinogen with desired peptides in 20 mM Tris-HCl, 150 mM NaCl, pH 7.5 in the presence or absence of Zn^2+ for at least 30 min followed by adding 1 unit of bovine thrombin. The total volume of each reaction was 1 ml and the reaction was observed by counting the time for allowing the solution to form a gel like clot in the test tube.
A four amino acid long peptide, G-P-R-P, binds to the γ chain of fibrinogen D fragment and prolongs the clotting time in a closed system containing fibrinogen and thrombin (Laudano, 1978; Laudano, 1980).

fibrinogen D fragment = biological target: T2, fibrinogen D fragment (Homo sapiens, UniProt P02671+P02675+P02679, DEL434-453); conditions: Laudano, 1978; read-out: reported binding affinity KD to fibrinogen D fragment; cited from earlier work
T2 construct: G-P-R-P peptide to fibrinogen D fragment
T2 sequence (P02671 130-216 limits assumed): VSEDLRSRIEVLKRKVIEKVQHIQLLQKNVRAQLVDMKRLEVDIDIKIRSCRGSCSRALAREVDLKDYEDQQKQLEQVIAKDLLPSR
T2 sequence (P02675 164-491 limits assumed): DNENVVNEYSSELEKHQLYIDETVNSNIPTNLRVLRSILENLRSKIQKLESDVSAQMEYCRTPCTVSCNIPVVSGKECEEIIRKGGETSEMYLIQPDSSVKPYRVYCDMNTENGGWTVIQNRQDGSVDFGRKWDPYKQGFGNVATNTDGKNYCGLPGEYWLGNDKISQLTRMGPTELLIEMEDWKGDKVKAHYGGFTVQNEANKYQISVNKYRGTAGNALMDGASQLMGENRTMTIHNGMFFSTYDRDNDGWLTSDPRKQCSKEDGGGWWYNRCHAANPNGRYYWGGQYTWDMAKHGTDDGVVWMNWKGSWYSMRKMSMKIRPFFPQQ
T2 sequence (P02679 112-433 limits assumed): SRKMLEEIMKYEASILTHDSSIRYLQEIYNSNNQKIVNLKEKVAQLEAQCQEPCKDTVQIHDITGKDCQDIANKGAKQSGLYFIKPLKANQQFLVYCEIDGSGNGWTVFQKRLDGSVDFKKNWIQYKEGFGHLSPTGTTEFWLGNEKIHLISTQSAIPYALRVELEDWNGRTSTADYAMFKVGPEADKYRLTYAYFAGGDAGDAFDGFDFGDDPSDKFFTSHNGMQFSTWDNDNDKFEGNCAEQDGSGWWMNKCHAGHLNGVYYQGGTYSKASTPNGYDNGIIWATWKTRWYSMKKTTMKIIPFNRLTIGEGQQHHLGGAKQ

fibrinogen D fragments = biological target: T3, fibrinogen D fragments (Homo sapiens, UniProt P02671+P02675+P02679, DEL434-453); experiment: Inhibition binding assay: competition with MBP-MD4 for binding to fibrinogen D fragments
T3 construct: Fibrinogen D and E fragment were purchased from Calbiochem; purchased Calbiochem (La Jolla, Calif.)
T3 sequence (P02671 130-216 limits assumed): T2 sequence (P02671 130-216 limits assumed)
T3 sequence (P02675 164-491 limits assumed): T2 sequence (P02675 164-491 limits assumed)
T3 sequence (P02679 112-433 limits assumed): T2 sequence (P02679 112-433 limits assumed)
Protocol: FIG. 8. Competitive binding of MD4 peptide in the interaction of MBP-MD4 to fibrinogen D fragments.
The protocol was based on the enzyme-linked immunosorbant binding assay as described above. However, the inhibitors were mixed with biotin labeled protein and allowed to bind to coated molecules in microtiter wells and incubated for 1 h at room temperature.
To measure the binding affinity of MD4 peptide to fibrinogen D fragments, fluorescence polarization experiments were carried out by incubating fluorescein labeled MD4 peptide with increasing concentration of fibrinogen D fragments and observing the change of polarization. The binding affinity of isolated MD4 peptide to fibrinogen D fragments in the presence of 15 uM ZnCl2 was saturable and the apparent dissociation constant, KD, was (8.4±1.6)×10^−8 M (FIG. 7). Competitive binding to D fragment was compared for a four amino acid peptide, G-P-R-P which is known to bind to fibrinogen γ chain (Pratt, 1997) and to prevent fibrinogen from forming fibrin (Laudano, 1978; Laudano, 1980), reduced and alkylated MD4, unlabeled MD4 peptide, and MBP-MD4. […] MD4 peptide binds to fibrinogen α and β chains in Western ligand binding assays whereas G-P-R-P peptide binds to the γ chain of fibrinogen, therefore, both peptides bound to different sites in D fragment.

## O=C(O)CN(CCN(CC(=O)O)CC(=O)O)CC(=O)O [EDTA]
[1]; 1 mM EDTA
  Human Fibrinogen/Bovine Thrombin Clotting Time: 12 min

## G-P-R-P
Fibrinogen D fragment
  Kd: 17 µM
Fibrinogen D fragments
  competition with MBP-MD4 for binding to fibrinogen D fragments: Neither G-P-R-P peptide, nor reduced and alkylated MD4 peptide could inhibit
[1]; 100 uM peptide, fibrinogen and thrombin, 15 uM ZnCl2
  delay of clot formation: 10 min
[1]; peptide 0.1 mM, 20 mM Tris, 150 mM NaCl, 15 μM ZnCl2, pH 7.4
  Human Fibrinogen/Bovine Thrombin Clotting Time: 10 min
